In patent publication US7166688B1, “Chelation compositions” (LidoChem, Inc., priority 2000, dated 2007):

Key:
[1] = Copper chelation, clear solution / precipitate test; type: physicochemical; conditions: 1 gram copper sulfate in 250 ml water, 10 ml solution, pH 8.4, 1 gram potassium phosphate
Description: A five percent chelated copper solution was prepared by blending 19 grams of basic copper sulfate in 100 ml of water. Concentrated HCl was added to solubilize the copper. Once in solution, 71 grams of the compound produced in Example 10 was added. […] This chelated copper solution is suitable for blending with phosphorus fertilizers.
In 250 ml of water 1 gram of copper sulfate was added and mechanically stirred. To this solution, 10 ml of the diethanolsuccinamide-amino ethanol solution produced in Example 17 was added. The pH of the blend was adjusted to 8.4 and 1 gram of potassium phosphate was added the mixture.
In another flask, 1 gram of copper sulfate was added to 250 ml of water and mechanically blended. Then, 1 gram of potassium phosphate was added to the blend. The pH of the solution was adjusted with potassium hydroxide. Immediately a powder solid was formed and precipitated. The hydroxide and phosphate salts of copper were formed.
(§1) In 400 ml of water, 1 gram of copper sulfate was added and 10 ml of the product from example 28 were added. With mechanical stirring, 20 grams of monopotassium phosphate were added to the mix. The pH of the solution was then adjusted to 2 with HCl. The pH of the solution was then gradually raised with the addition of Monoethanolamine to a pH of 9.
Two grams of basic copper sulfate were added to 200 ml of water. […]

[2] = Manganese chelation, clear solution / precipitate test; type: physicochemical; conditions: 10 ml manganese nitrate solution in 25 ml water, 30 ml solution, pH 6, 1 gram potassium phosphate
Description: In 25 ml of water 10 ml of a manganese nitrate solution was added. Once the manganese nitrate was in solution, 30 ml of the N,N-diethanolsuccinamide amino ethanol solution produced in Example 17 was added to the mixture and the pH of the blend was adjusted to 6. Then 1 gram of potassium phosphate was added to the mixture.
A five percent chelated manganese solution was prepared by blending 18 ml of water with 58 grams of a (17% Mn) manganese nitrate solution. Once the manganese nitrate was in solution, 82 grams of the compound produced in Example 10 was added. […] This chelated manganese solution is suitable for blending with phosphorus fertilizers.

[3] = Iron chelation, clear solution / precipitate test; type: physicochemical; conditions: 20 ml 1.8M ferric nitrate in 25 ml water, 30 ml solution, pH 9.2, 1 gram potassium phosphate
Description: A five percent chelated iron solution was prepared by blending 18 ml of water with 100 grams of a (10% Fe) ferric nitrate solution. Once in solution, 82 grams of the compound produced in Example 10 was added.
In 25 ml of water, 20 ml of a 1.8M ferric nitrate was added. Once in solution, 30 ml of the diethanolsuccinamide amino ethanol solution produced in Example 17 was added and the pH of the blend was adjusted to 9.2. Then 1 gram of potassium phosphate was added to the mixture.
Five drops of 1.8 M ferric nitrate were added to one liter of water and mechanically blended. Then 10 grams of potassium phosphate were added to the solution and allowed to form insoluble potassium salts.
In 400 ml of water, 20 ml of a 10% ferric nitrate solution were added, and 20 ml of the product from example 25 were added. With mechanical stirring, 40 grams of monopotassium phosphate was added the mix. The pH of the solution was then adjusted to 2 with HCl. The pH of the solution was then gradually raised with the addition of base to a pH of 10.
In 400 ml of water, 10 ml of 1.8 M ferric nitrate solution were added and 20 ml of the product from example 28 were added. With mechanical stirring, 20 grams of monopotassium phosphate was added to the mix. The pH of the solution was then adjusted to 2 with HCL. The pH of the solution was then gradually raised with the addition of Monoethanolamine to a pH of 10.
To a beaker containing one liter of water, 20 grams of potassium phosphate were added to form a clear solution.
Thirty grams of 1.8 M ferric nitrate were added to 100 ml of water. The pH of the solution was lowered to 4 with phosphorous acid, and then 5 grams of Potassium phosphate were then added to the blend. Later 30 ml of the solution produced in example 29 was added.
One hundred ml of the solution prepared in Example 41 was added to 500 ml of water and blended. 10 ml of 1.8-M ferric nitrate was then added to the mixture. […] The potassium salt of maleic acid was tested as a chelating agent.
In a separate flask 20 grams of maleic anhydride were blended in 500 ml of water. Potassium hydroxide was then added to the blend to raise the pH to 10. Later ten ml of 1.8M ferric nitrate was added to the mix and 10 grams of potassium phosphate was also blended in. […] The contents of the flask were then blended again while MEA was added to the mix.

[4] = Calcium chelation, clear solution / precipitate test; type: physicochemical
Description: In a preliminary study, 2 grams of calcium chloride dihydrate were added to 200 ml of water and mechanically stirred. Then 20 ml of the diethanolsuccinamide amino ethanol solution produced in example 17 was added to the blend.
In another flask 2 grams of calcium chloride dihydrate were added to 200 ml of water and the pH was adjusted to 9. Almost immediately calcium hydroxide began to precipitate.

[5] = Zinc chelation, clear solution / precipitate test; type: physicochemical; conditions: 1 gram zinc sulfate in 25 ml water, 30 ml solution, pH 9.5, 1 gram potassium phosphate
Description: In 25 ml of water 1 gram of zinc sulfate was added. Once the zinc sulfate was in solution, 30 ml of the N,N-diethanolsuccinamide amino ethanol solution produced in Example 17 was added and the pH of the blend was adjusted to 9.5. Then 1 gram of potassium phosphate was added tho the mixture.
In a separate flask 25 ml of water, 1 gram of zinc sulfate and 1 gram of potassium phosphate were blended together. Immediately a white precipitate formed.
as §1, with “20 ml” for “1 gram”, “a 17% zinc nitrate solution were” for “copper sulfate was”, “60” for “10”, “40” for “20”
A nine percent chelated zinc solution was prepared by blending 50 ml of water with 22.4 grams zinc oxide. Concentrated HCl was added until the solution was clear. Once in solution, 125 grams of the compound produced in Example 10 was added. […] This chelated zinc solution is suitable for blending with phosphorus fertilizers 2-ethanolaminesuccinic-N-ethanolsuccinicamide (tri potassium salt) has the following formula: […]
Ten ml of 17% zinc solution were added to a liter of water. Later 20 grams of potassium phosphate were added and dissolved. Zinc phosphate formed a precipitate. Phosphorous acid was then added to lower the pH and clear the solution. Once clear 30 ml of the solution prepared in example 35 was added. This acidic solution, which was acidic, then remained undisturbed for a day, after which the pH was adjusted to 10 with the addition of MEA.

[6] = tested on: corn seed, NCE Hybrid 5817; assay: Corn seed germination with IDS acid, root hairs; type: in vivo; conditions: 10 corn seed on germination tray, 1/10th of a gram of IDS acid, imbibed with water, day 5; control: root hairs only on short segments
From the text: A 34% tetrasodium iminodisuccinate solution was protonated with concentrated HCl and crystalized under refrigeration in a dilute water/ethanol. The crystals were then filtered out of the solution and the residual sodium chloride was rinsed from the crystals with ice water. The IDS crystals were then dried. Two sets of 10 corn seed, NCE Hybrid 5817, were then placed on germination trays. One tray had 1/10th of a gram of the IDS acid placed in the center of the tray. The seeds were then imbibed with water. The seeds germinated as expected on day 2. On day 5 the root hairs began to show on the seedlings treated with the IDS. Photos were taken. This procedure was repeated on three occasions with simular results. There were also root hairs on the control set, however, the root hairs were only on short segments of the roots. […] This would be a substantial increase in the root surface area.

[7] = tested on: pepper plants; assay: IDS versus EDTA chelates applied to the soil of pepper plants, tissue analysis; type: in vivo
Description: Below is the protocol and tissue analysis for the soil-applied iminodisuccinate and EDTA chelated mineral salts. Treatments: Control—no fertilizer 15-30-15 (fertilizer) alone 15-30-15 plus Cu IDS […] 15-30-15 plus Mn IDS […] 15-30-15 plus Zn IDS […] The standard fertilizer contained no micronutrients. Fertilizer was Hyponex 15-30-15. Each treatment was replicated 3 times. Soil treatments were applied as 50 ml per of the dilute blend of this invention. The pepper plants were transplanted into 1-gallon containers and grown until a suitable size. Plants were treated with the soil-applied chelate. Tissue samples were taken 30 days after the soil treatment had been applied. […] One gallon of fertilizer was poured over three replications of each set in the trial.

## O=C(CC(C(=O)[O-])N(CCO)C(CC(=O)NCCO)C(=O)[O-])NCCO.[K+].[K+] (stereo not drawn) [Example 17, diethanolsuccinicamide-amino ethanol]
[1]
  appearance of blend / precipitates: clear, dark blue and free of precipitates
[2]
  appearance of blend / precipitates: clear, amber in color, and free of precipitates
[3]
  appearance of blend / precipitates: clear, dark ruby red and free of precipitates
[4]; 2 grams calcium chloride dihydrate in 200 ml water, 20 ml solution, pH 9
  appearance of solution / precipitates: a clear solution free of precipitates
[4]; same solution lowered to a pH of 5.5, phosphate salts added
  calcium phosphate precipitate formation: without calcium phosphate precipitate formation
[5]
  appearance of blend / precipitates: clear, yellow, and free of precipitates

## O=C(O)CC(NC(CC(=O)O)C(=O)O)C(=O)O (stereo not drawn) [IDS, iminodisuccinic acid]
[6]
  root hairs on seedlings: root hairs appear along the entire length of radical and lateral roots
[7]; soil applied with 15-30-15, tissue 30 days after treatment, control 8.0
  copper in tissue, TREATED: 10.8
[7]; soil applied, control 4.8
  TREATED (dry weight): 6.4
[7]; soil applied, dry weight, CONTROL DRY 4.8
  TREATED DRY: 6.8
[7]; soil applied, tissue level times dry weight, control adjusted 38.08
  copper in tissue, TREATED ADJUSTED: 68.79
[7]; soil applied, treated adjusted minus control adjusted 38.08
  copper in tissue, CHANGE IN (adjusted): 30.72
[7]; soil applied, treated dry minus control dry 4.8
  CHANGE IN WEIGHT: 2.09
[7]; soil applied, versus control adjusted 38.08
  copper in tissue, % CHANGE (adjusted): 81%
[7]; soil applied, versus control dry 4.8
  % CHANGE (dry weight): 44%
